Assay results reported in US20250228239A1, “MOLECULES HAVING PESTICIDAL UTILITY, AND INTERMEDIATES, COMPOSITIONS, AND PROCESSES, RELATED THERETO” (priority 2024, published 2025).
Read-outs that look alike come from different tables or passages of the source.

Experiments:
Assay type in all cases: in vivo
[1] = test system: Cabbage Looper (Trichoplusia ni, TRIPNI); assay: Bioassays on Cabbage Looper (CL), 128-well diet tray assay; settings: Trichoplusia ni
Summary of the method: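 Activity is mean percent mortality over eight wells of second-instar larvae exposed to diet treated at 50 μg/cm^2 for 5–7 days at 25° C.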

[2] = test system: Beet Armyworm (Spodoptera exigua, LAPHEG); assay: Bioassays on Beet Armyworm (BAW), 128-well diet tray assay; settings: Spodoptera exigua
Summary of the method: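 Test molecule was dissolved in 90:10 acetone-water and applied at 50 μg/cm^2 onto artificial diet in eight wells, then dried. Second instar larvae, one to five per well, were added, and trays were kept vented at 25° C. with a 14:10 photoperiod for five to seven days before mortality was recorded.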

[3] = test system: Green Peach Aphid (Myzus persicae, MYZUPE); assay: Bioassays on Green Peach Aphid (GPA), foliar spray on cabbage seedlings; settings: 72 h
Protocol: Certain molecules disclosed in this document were tested against GPA using procedures described in the following example. In the reporting of the results, the “GPA & YFM Rating Table” was used (See Table Section).
Cabbage seedlings grown in 3-inch pots, with 2-3 small (3-5 cm) true leaves, were used as test substrate. The seedlings were infested with 20-50 GPA (wingless adult and nymph stages) one day prior to chemical application. Four pots with individual seedlings were used for each treatment. Test molecules (2 mg) were dissolved in 2 mL of acetone/methanol (1:1) solvent, forming stock solutions of 1000 ppm test molecule. The stock solutions were diluted 5× with 0.025% Tween 20 in water to obtain the solution at 200 ppm test molecule. A hand-held aspirator-type sprayer was used for spraying a solution to both sides of […] leaves until runoff. Reference plants (solvent check) were sprayed with the diluent only containing 20% by volume of acetone/methanol (1:1) solvent. Treated plants were held in a holding room for three days at approximately 25° C. and ambient relative humidity (RH) prior to grading. Evaluation was conducted by counting the number of live aphids per plant under a microscope. Percent control was measured using Abbott's correction formula (W. S. Abbott, “A Method of Computing the Effectiveness of an Insecticide” J. Econ. Entomol. 18 (1925), pp. 265-267) as follows. Corrected % Control=100*(X−Y)/X where X=No. of live aphids on solvent check plants and Y=No. of live aphids on treated plants. The results are indicated in the table entitled “Table ABC: Biological Results” (See Table Section).

[4] = test system: Yellow Fever Mosquito (Aedes aegypti, AEDSAE); settings: for YFM rating: Yellow Fever Mosquito, Table ABC / ABC-DP rating
Summary of the method: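 Compounds from DMSO master plates (4000 ppm stock) diluted in 90:10 water/acetone, then dispensed into six replicate plates and infested with ~1-day-old Aedes aegypti larvae in liver-powder water. Held covered at room temperature for 3 days; each well scored for larval mortality and graded on a rating scale.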

[5] = Table ABC: Biological Results, species CL, read-out: CL
[6] = Table ABC: Biological Results, species BAW, read-out: BAW
[7] = Table ABC: Biological Results, species GPA, read-out: GPA
[8] = Cabbage Looper, Table ABC / ABC-DP rating, read-out: CL rating
[9] = Beet Armyworm, Table ABC / ABC-DP rating, read-out: BAW rating
[10] = Cabbage Looper, rating class, read-out: CL
[11] = Beet Armyworm, rating class, read-out: BAW
[12] = Green Peach Aphid, rating class, read-out: GPA

## Cc1c(Cl)cc(NC(=O)[C@H]2[C@H](c3ccc(F)c(Cl)c3)C2(Cl)Cl)cc1C(=O)Nc1ccc(F)cc1F (relative stereo) [F1190, trans-3-Chloro-5-(2,2-dichloro-3-(3-chloro-4-fluorophenyl)cyclopropane-1-carboxamido)-N-(2,4-difluorophenyl)-2-methylbenzamide]
[1]; [5]
  pest or weed control at 50 µg/cm2: 50 to 100%
[2]; [6]
  pest or weed control at 50 µg/cm2: 50 to 100%
[3]; [7]
  pest or weed control at 200 µg/mL: 80 to 100%

## O=C(NNC(=O)c1cc(NC(=O)[C@H]2[C@H](c3cc(Cl)cc(Cl)c3)C2(Cl)Cl)ccc1Cl)Nc1ccccc1 (relative stereo) [F2537, trans-2-(2-Chloro-5-(2,2-dichloro-3-(3,5-dichlorophenyl)cyclopropane-1-carboxamido)benzoyl)-N-phenylhydrazine-1-carboxamide]
[1]; [8]
  pest or weed control at 50 µg/cm2: 50 to 100%
[2]; [9]
  pest or weed control at 50 µg/cm2: 50 to 100%
[3]; Green Peach Aphid, Table ABC / ABC-DP rating, read-out: GPA rating
  pest or weed control at 200 µg/mL: 80 to 100%

## O=C(Nc1cc(NC(=O)C(Cl)Cl)c(F)cc1F)c1cc(NC(=O)[C@H]2[C@H](c3ccc(Cl)c(Cl)c3)C2(Cl)Cl)ccc1Cl [F1244, 2-Chloro-5-((1R,3R)-2,2-dichloro-3-(3,4-dichlorophenyl)cyclopropane-1-carboxamido)-N-(5-(2,2-dichloroacetamido)-2,4-difluorophenyl)benzamide]
[1]; [5]
  pest or weed control at 50 µg/cm2: 50 to 100%
[2]; [6]
  pest or weed control at 50 µg/cm2: 50 to 100%
[3]; [7]
  pest or weed control at 200 µg/mL: 0 to 80%

## Nc1c(F)ccc(NC(=O)c2cc(NC(=O)[C@H]3[C@H](c4ccc(F)c(Cl)c4)C3(Cl)Cl)cc(F)c2Cl)c1F [F1255, N-(3-amino-2,4-difluorophenyl)-2-chloro-5-((1R,3R)-2,2-dichloro-3-(3-chloro-4-fluorophenyl)cyclopropane-1-carboxamido)-3-fluorobenzamide]
[1]; [5]
  pest or weed control at 50 µg/cm2: 50 to 100%
[2]; [6]
  pest or weed control at 50 µg/cm2: 50 to 100%
[3]; [7]
  pest or weed control at 200 µg/mL: 80 to 100%

## O=C(Nc1ccc(F)c(NC(=O)C(F)F)c1F)c1cc(NC(=O)[C@H]2[C@H](c3ccc(F)c(Cl)c3)C2(Cl)Cl)cc(F)c1Cl [F1256, 2-Chloro-5-((1R,3R)-2,2-dichloro-3-(3-chloro-4-fluorophenyl)cyclopropane-1-carboxamido)-N-(3-(2,2-difluoroacetamido)-2,4-difluorophenyl)-3-fluorobenzamide]
[1]; [5]
  pest or weed control at 50 µg/cm2: 50 to 100%
[2]; [6]
  pest or weed control at 50 µg/cm2: 50 to 100%
[3]; [7]
  pest or weed control at 200 µg/mL: 80 to 100%

## O=C(Nc1c(F)cc(NC(=O)C(F)(F)F)cc1F)c1cc(NC(=O)[C@H]2[C@H](c3ccc(Cl)c(Cl)c3)C2(Cl)Cl)ccc1Cl [F1261, 2-Chloro-5-((1R,3R)-2,2-dichloro-3-(3,4-dichlorophenyl)cyclopropane-1-carboxamido)-N-(2,6-difluoro-4-(2,2,2-trifluoroacetamido)phenyl)benzamide]
[1]; [5]
  pest or weed control at 50 µg/cm2: 50 to 100%
[2]; [6]
  pest or weed control at 50 µg/cm2: 50 to 100%
[3]; [7]
  pest or weed control at 200 µg/mL: 80 to 100%

## CC(=O)Nc1cc(F)c(NC(=O)c2cc(NC(=O)[C@H]3[C@H](c4ccc(Cl)c(Cl)c4)C3(Cl)Cl)ccc2Cl)c(F)c1 [F1262, N-(4-Acetamido-2,6-difluorophenyl)-2-chloro-5-((1R,3R)-2,2-dichloro-3-(3,4-dichlorophenyl)cyclopropane-1-carboxamido)benzamide]
[1]; [5]
  pest or weed control at 50 µg/cm2: 50 to 100%
[2]; [6]
  pest or weed control at 50 µg/cm2: 50 to 100%
[3]; [7]
  pest or weed control at 200 µg/mL: 80 to 100%

## CC(=O)Nc1ccc(F)c(NC(=O)c2cc(NC(=O)[C@H]3[C@H](c4cc(Cl)cc(Cl)c4)C3(Cl)Cl)cc(F)c2Cl)c1F [F1505, N-(3-acetamido-2,6-difluorophenyl)-2-chloro-5-((1R,3R)-2,2-dichloro-3-(3,5-dichlorophenyl)cyclopropane-1-carboxamido)-3-fluorobenzamide]
[1]; [10]
  pest or weed control at 50 µg/cm2: 50 to 100%
[2]; [11]
  pest or weed control at 50 µg/cm2: 50 to 100%
[3]; [12]
  pest or weed control at 200 µg/mL: 0 to 80%

## O=C(Nc1ccc(F)c(NC(=O)C(F)F)c1F)c1cc(NC(=O)[C@H]2[C@H](c3ccc(F)c(C(F)(F)F)c3)C2(Cl)Cl)ccc1F [F1530, 5-((1R,3R)-2,2-Dichloro-3-(4-fluoro-3-(trifluoromethyl)phenyl)cyclopropane-1-carboxamido)-N-(3-(2,2-difluoroacetamido)-2,4-difluorophenyl)-2-fluorobenzamide]
[1]; [10]
  pest or weed control at 50 µg/cm2: 50 to 100%
[2]; [11]
  pest or weed control at 50 µg/cm2: 50 to 100%
[3]; [12]
  pest or weed control at 200 µg/mL: 0 to 80%

## CC(=O)Nc1c(F)ccc(NC(=O)c2cc(NC(=O)[C@H]3[C@H](c4ccc(F)c(C(F)(F)F)c4)C3(Cl)Cl)ccc2F)c1F [F1531, N-(3-acetamido-2,4-difluorophenyl)-5-((1R,3R)-2,2-dichloro-3-(4-fluoro-3-(trifluoromethyl)phenyl)cyclopropane-1-carboxamido)-2-fluorobenzamide]
[1]; [10]
  pest or weed control at 50 µg/cm2: 50 to 100%
[2]; [11]
  pest or weed control at 50 µg/cm2: 50 to 100%
[3]; [12]
  pest or weed control at 200 µg/mL: 0 to 80%

## CC(=O)Nc1c(F)ccc(NC(=O)c2cc(NC(=O)[C@H]3[C@H](c4ccc(Cl)c(C(F)(F)F)c4)C3(Cl)Cl)ccc2Cl)c1F [F1658, N-(3-Acetamido-2,4-difluorophenyl)-2-chloro-5-((1R,3R)-2,2-dichloro-3-(4-chloro-3-(trifluoromethyl)phenyl)cyclopropane-1-carboxamido)benzamide]
[1]; [10]
  pest or weed control at 50 µg/cm2: 50 to 100%
[2]; [11]
  pest or weed control at 50 µg/cm2: 50 to 100%
[3]; [12]
  pest or weed control at 200 µg/mL: 0 to 80%

## CCOC(C)C(=O)Nc1c(F)ccc(NC(=O)c2cc(NC(=O)[C@H]3[C@H](c4ccc(F)c(Cl)c4)C3(Cl)Cl)ccc2Cl)c1F (stereo partly drawn) [F1698, 2-Chloro-5-((1R,3R)-2,2-dichloro-3-(3-chloro-4-fluorophenyl)cyclopropane-1-carboxamido)-N-(3-(2-ethoxypropanamido)-2,4-difluorophenyl)benzamide]
[1]; [10]
  pest or weed control at 50 µg/cm2: 50 to 100%
[2]; [11]
  pest or weed control at 50 µg/cm2: 50 to 100%
[3]; [12]
  pest or weed control at 200 µg/mL: 0 to 80%

## N#CCC(=O)Nc1c(F)ccc(NC(=O)c2cc(NC(=O)[C@H]3[C@H](c4ccc(F)c(Cl)c4)C3(Cl)Cl)ccc2Cl)c1F [F1700, 2-Chloro-N-(3-(2-cyanoacetamido)-2,4-difluorophenyl)-5-((1R,3R)-2,2-dichloro-3-(3-chloro-4-fluorophenyl)cyclopropane-1-carboxamido)benzamide]
[1]; [10]
  pest or weed control at 50 µg/cm2: 50 to 100%
[2]; [11]
  pest or weed control at 50 µg/cm2: 50 to 100%
[3]; [12]
  pest or weed control at 200 µg/mL: 0 to 80%

## CN(NC(=O)c1cc(NC(=O)[C@H]2[C@H](c3ccc(Cl)c(Cl)c3)C2(Cl)Cl)ccc1Cl)c1ccccc1 [F2513, (1R,3R)-2,2-Dichloro-N-(4-chloro-3-(2-methyl-2-phenylhydrazine-1-carbonyl)phenyl)-3-(3,4-dichlorophenyl)cyclopropane-1-carboxamide]
[1]; [8]
  pest or weed control at 50 µg/cm2: 50 to 100%
[4]
  YFM rating: A (80–100)
[2]; [9]
  pest or weed control at 50 µg/cm2: 50 to 100%

## CN(C(=O)c1cc(NC(=O)[C@H]2[C@H](c3ccc(Cl)c(Cl)c3)C2(Cl)Cl)ccc1Cl)N(C)c1ccccc1 [F2544, (1R,3R)-2,2-Dichloro-N-(4-chloro-3-(1,2-dimethyl-2-phenylhydrazine-1-carbonyl)phenyl)-3-(3,4-dichlorophenyl)cyclopropane-1-carboxamide]
[1]; [8]
  pest or weed control at 50 µg/cm2: 50 to 100%
[4]
  YFM rating: A (80–100)
[2]; [9]
  pest or weed control at 50 µg/cm2: 50 to 100%

## O=C(NN=Cc1ccccc1)c1cc(NC(=O)C2C(c3cc(Cl)cc(Cl)c3)C2(Cl)Cl)ccc1Cl (stereo not drawn) [F3001, trans-N-(3-(2-Benzylidenehydrazine-1-carbonyl)-4-chiorophenyl)-2,2-dichloro-3-(3,5-dichlorophenyl)cyclopropane-1-carboxamide]
[1]; 168 h, second instar larvae, 50 μg/cm^2 of test molecule on artificial diet, 25° C., five to seven days, average of eight wells, read-out: CL % Control (or Mortality) rating
  mortality at 50 µg/cm2: 50 to 100%
[1]; [8]
  pest or weed control at 50 µg/cm2: 50 to 100%
[4]
  YFM rating: A (80–100)
[4]; about 1 day-old larvae, 4000 ppm master solution diluted with 90:10 water/acetone, 15 μL per well plus 220 μL larval mixture, 3 days, mortality
  YFM % Control (or Mortality) rating: A (80–100)
[2]; 168 h, second instar larvae, 50 μg/cm^2 of test molecule on artificial diet, 25° C., five to seven days, average of eight wells, read-out: BAW % Control (or Mortality) rating
  mortality at 50 µg/cm2: 50 to 100%
[2]; [9]
  pest or weed control at 50 µg/cm2: 50 to 100%
